Reference: PMC4257840 (Journal of Medicinal Chemistry, 2014)

Experiments:
Format in all cases: biochemical
[1] = target: T1, Human cathepsin E (Homo sapiens, UniProt P14091); assay: Protease counter-screening: Cathepsin E
T1 construct: host or cells: NS0 murine myeloma cell line
Experimental: (§1) Appendix 7. Protease Counter -Screening
(§2) Protease counter-screeni ng was performed using the methods described below. Initial screening was conducted in duplicate using a single test substance concentration of 10 µ M .
(§3) Additional assays were conducted in replicate for selected pairin gs of test s ubstance and enz yme in order to enable the determination of IC50 values using conventional procedures.
(§4) Determination of K i was made using the Batch K i program (Biokin Ltd, Pullman, WA) to derive values from the Morrison equation: […]
(§5) Where [E ] is the active enz yme concentration, Kiapp is the apparent inhibition const ant, v 0 is the control velocit y in the absence of inhibitors, vb is the background velocity, v is the initial reaction velocit y in the presence of inhibitor, and I is the inhibitor concentration.Thence:
(§6) Where [S ] is the substrate concentration and KM is the Michealis constant.
(§7) Caspase 1: Activity against human recombinant caspase 1 expressed in E. coli was tested using Ac-YVAD- AMC as the substrate. Test compound or vehicle was pre- incubated with 600 […]
Cathep sin D: Tests were performed using enz ym e purified from human li ver. Test compound or vehicle was pre- incubated with 190 mU/mL enz yme in modified acetate buffer pH 4.0 for 15 min at 37 °C. […]
The amount of MCA-P LG formed was measured spectrofluorimetricall y at 340 nm/400 nm. […]

[2] = target: T2, human plasma thrombin (Homo sapiens, UniProt P00734); assay: Protease counter-screening: Thrombin; details: test concentration 0.3-100 µM
T2 construct: thrombin in modified HEPES buffer pH 7.5; from tissue; host or cells: human plasma
Experimental: as §1, §2, §3, §4, §5, §6, §7
followed by excitation/emission at 485/535 nm. […]
AMC formation was read at 360 nm/465 nm.
Cathepsin L2: Human recombinant cathepsin L2 expressed in NS0 cells was used as the enzyme source. […] Form ation of AMC was measured at 360 […]
The amount of AMC formed was read spectrofluorimetricall y at 360 nm/465 nm. […]

[3] = target: T3, Human recombinant MMP-3 (Homo sapiens, UniProt P08254); assay: Protease counter-screening: MMP-3
T3 construct: host or cells: E. coli
Experimental: as §1, §2, §3, §4, §5
Where [S ] is the substrate concentration and KM is the Michealis constant. […]
Test compound or vehicle was pre- incubated with 600 […]
The reaction was […]
initiated by addition of 1 µM N-CH3-SO2-D-FGR-pNA for another 120 min incubation period. […]
Matrix metalloprotease-3 (MMP-3 ): Human recombinant MMP-3 proenz yme expressed in E. coli was activated with 4-aminophen yl mercuric acetate (APMA) for 60 min at 37 °C. […] The amount of MCA-PLG formed was read spectrofluorimetricall y at 340 nm/400 nm.

T3 sequence (P08254 100-477): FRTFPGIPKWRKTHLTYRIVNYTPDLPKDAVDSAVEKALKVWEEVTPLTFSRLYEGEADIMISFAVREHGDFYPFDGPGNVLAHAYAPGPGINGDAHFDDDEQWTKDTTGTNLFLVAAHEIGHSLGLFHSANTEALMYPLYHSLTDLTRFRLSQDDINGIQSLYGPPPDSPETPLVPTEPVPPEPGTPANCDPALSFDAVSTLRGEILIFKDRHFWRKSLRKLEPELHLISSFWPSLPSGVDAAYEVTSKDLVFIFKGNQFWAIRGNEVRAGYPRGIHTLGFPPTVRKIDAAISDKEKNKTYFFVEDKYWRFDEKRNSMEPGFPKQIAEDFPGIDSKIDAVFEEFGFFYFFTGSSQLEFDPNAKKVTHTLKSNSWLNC
T1 sequence (P14091 54-396): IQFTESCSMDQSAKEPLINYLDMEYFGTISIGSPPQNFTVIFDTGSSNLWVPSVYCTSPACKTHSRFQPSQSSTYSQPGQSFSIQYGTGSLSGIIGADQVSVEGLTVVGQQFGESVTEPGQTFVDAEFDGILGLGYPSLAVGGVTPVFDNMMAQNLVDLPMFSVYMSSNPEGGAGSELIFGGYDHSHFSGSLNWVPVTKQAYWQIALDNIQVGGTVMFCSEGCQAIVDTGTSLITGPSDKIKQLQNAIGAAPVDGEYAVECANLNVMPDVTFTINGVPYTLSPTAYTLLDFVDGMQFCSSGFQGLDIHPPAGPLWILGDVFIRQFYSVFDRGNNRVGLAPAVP

Question: With `CC(C)[C@H](NC(=O)[C@H](C)NC(=O)[C@@H](NC(=O)c1ccccc1)C(C)(C)C)C(=O)C(=O)NCc1ccccc1` [Compound 38, N-{(S)-1-[(S)-1-((S)-1-Benzylaminooxalyl-2-methyl-propylcarbamoyl)-ethylcarbamoyl]-2,2-dimethyl-propyl}-benzamide] as the compound, how does the inhibition at 10 µM [1] read?
Answer: 23%

Question: And the IC50 [2]?
Answer: > 100 µM

Question: What about the inhibition at 10 µM [3] of the same compound?
Answer: 0%
